# From patent US20240408064A1, “RAS INHIBITORS, COMPOSITIONS AND METHODS OF USE THEREOF” (GENETOLEAD INC., priority 2021, published 2024)
# What was measured:
# HRas^G12V [1] = biological target: T1, HRas^G12V (Homo sapiens (Human), UniProt P01112, G12V); assay: 19F T2-CPMG NMR score; assay type: binding
# Method in brief: (§1)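 In the T2-CPMG experiment, echo spacing was 1 ms and total delays ranged over eight values from 1 to 800 ms. Both scores come from 600 MHz NMR of 50 μM HRas G12V mixed with fragment pools at 240 μM each, in phosphate buffer pH 7.4 with NaCl, MgCl2 and TCEP-d16. Ligand-observed 19F spectra were recorded with 1H decoupling, 64 scans and a 5 s relaxation delay.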
# HRas^G12V [2] = biological target: T1, HRas^G12V; assay: 19F DLB (ligand-observed 19F NMR) score; assay type: binding; set-up: scale not given here
# Method in brief: as §1
# HRas^G12V [3] = biological target: T1, HRas^G12V; assay: Overall binding/activity in the various assays (NMR consensus binding)
# Method: Since the fragment library was curated using phosphate buffer, 25 mM sodium phosphate pH 7.4, 150 mM NaCl, 5 mM MgCl2, 1 mM TCEP-d16, 10% D2O Fresh TCEP was used for experiments. Screening was performed using ^1H-decoupled 1D ^19F experiment Bruker experiment (zgfhigqn.2) with 64 scans and a relaxation delay of 5 seconds. 50 μM HRas^G12V and 240 μM of each fragment in pools (mixtures) were used.
# Hit confirmation was performed using the same ^19F experiment as the screen. Ligand-observed 1D ^1H, protein-observed 1D ^1H, ^1H T2-CPMG as well as Saturation Transfer Difference (STD) experiments were also run on the same samples. Ligand-observed 1D ^1H was run using the standard Bruker sequence with excitation sculpting (zgesgp) with a relaxation delay of 10 seconds and 16 scans per spectrum. Protein-observed 1D ^1H was performed using the same sequence with a relaxation delay of 1 second and 256 scans in order to increase the signal-to-noise of the protein resonances, while keeping the experimental time relatively short. The ^1H T2-CPMG experiment employed a modified version of the Bruker 1D ^1H zgesgp experiment with the addition of a CPMG pulse train after the first 90° excitation pulse. Total duration for each spin echo was fixed at 1 ms (τ=500 μs), while the number of echoes in the pulse train was varied according to the total time (T). The number of scans for each spectrum was 4 and eight delay times were run on each sample, ranging from 1 ms to 800 ms.
# STD experiments consisted of two independent spectra with offsets of 0 ppm (on resonance) and −20 ppm (off resonance). […] 160 scans were acquired for each spectrum.
# The results obtained with the compounds in the various assays described above are depicted in Table 21.
# Because of its power to probe the intrinsically weak interactions (Kd) between targets and low-molecular weight fragments, NMR fragment-based lead discovery (FBLD) is a very useful biophysical method in early stage drug discovery, especially for challenging target proteins; including those with shallow binding pockets. Since FBLD screens are performed using low-molecular weight compounds (fragments) with lower structural complexity, the same chemical space can be covered using a smaller number of drug-like fragments versus use of large libraries of higher-molecular weight lead-like compounds as in high throughput screening (HTS) campaigns. Therefore, FBLD has a much higher hit rate than HTS using only several hundred to several thousand compounds in comparison with approximately 1 million compounds for HTS. Also, the small size of the compounds screened in FBLD means a better chance to fully match the interactions with small or transient pockets within the target protein, where these less tractable pockets cannot be accessed with standard classical HTS methods. […] We expect this methodology to be more advantageous than classical HTS methods for expediting the time from hit to lead (H2L) and allows for rapid access to high quality leads with lower attrition rates in subsequent lead optimization (LO) campaigns toward pre-clinical candidate selection. FBLD screening by NMR involves a “consensus binding” approach where several distinct NMR experiments (DLB, STD, CPMG) are applied along with a free-state aggregation detection method (T2-CPMG) to rank the compounds for their affinity to the receptor (HRAS in this case) whilst simultaneously monitoring the solution behavior and critical quality attributes of each compound. The latter helps to eliminate artifact binders which are highly problematic. We performed a fluorine screen involving 461 compounds that were derived from a highly curated fragment library. Moreover, two-dimensional ^15N HSQC NMR was also used to validate ligand-binding sites on the target protein. In addition, we employed protein-detected biophysical measurements were employed to determine fragment binding affinities to the target protein (Kd) by HSQC NMR. […]
# T1 sequence (P01112 1-166 G12V): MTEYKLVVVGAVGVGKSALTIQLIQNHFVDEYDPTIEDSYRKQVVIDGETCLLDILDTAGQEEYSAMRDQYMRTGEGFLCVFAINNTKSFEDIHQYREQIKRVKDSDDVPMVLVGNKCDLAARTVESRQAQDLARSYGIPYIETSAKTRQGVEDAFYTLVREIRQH
19F T2-CPMG Score (HRas^G12V [1]),19F DLB Score (HRas^G12V [2]),Binding to HRas^G12V (in words) (HRas^G12V [3]),Structure (SMILES)
2.67,1.15,low or no binding,"CN1CCC(NC(=O)Cc2c[nH]c3cc(F)ccc23)C(C(=O)O)C1 (stereo not drawn) [Compound 10118, 4-(2-(6-fluoro-1H-indol-3-yl)acetamido)-1-methylpiperidine-3-carboxylic acid]"
−0.46,0.87,low or no binding,"CN1CCC(NC(=O)Cc2c[nH]c3cc(F)ccc23)C(C(=O)O)C1 (stereo not drawn) [Compound 10119, 4-(2-(6-fluoro-1H-indol-3-yl)acetamido)-1-methylpiperidine-3-carboxylic acid]"
5.23,1.26,low or no binding,CCOC(=O)[C@H]1COCCN1C(=O)Cc1c[nH]c2cc(F)ccc12 [Compound 10121]
2.37,1.5,low or no binding,O=C(O)[C@@H]1CCCCN1C(=O)Cc1c[nH]c2cc(F)ccc12 [Compound 10123]
4.35,1.3,low or no binding,O=C(O)CC1CCN(C(=O)Cc2c[nH]c3cc(F)ccc23)CC1 [Compound 10127]
2.85,1.63,low or no binding,"O=C(O)[C@H]1CCCN(C(=O)Cc2c[nH]c3cc(F)ccc23)C1 [Compound 10133, (S)-1-(2-(6-fluoro-1H-indol-3-yl)acetyl)piperidine-3-carboxylic acid]"
6.73,1.55,low or no binding,O=C(Cc1c[nH]c2cc(F)ccc12)N1CCOC(c2ccccc2)C1 (stereo not drawn) [Compound 10136]
5.98,1.49,low or no binding,"CCOC(=O)[C@@H]1COCCN1C(=O)Cc1c[nH]c2cc(F)ccc12 [Compound 10140, ethyl (S)-4-(2-(6-fluoro-1H-indol-3-yl)acetyl) morpholine-3-carboxylate]"
3.15,1.21,low or no binding,"COC(=O)C1CN(C(C)C)CCC1NC(=O)Cc1c[nH]c2cc(F)ccc12 (stereo not drawn) [Compound 10141, methyl 4-(2-(6-fluoro-1H-indol-3-yl)acetamido)-1-isopropylpiperidine-3-carboxylate]"
2.43,1.11,low or no binding,"COC(=O)C1CN(C)CCC1NC(=O)Cc1c[nH]c2cc(F)ccc12 (stereo not drawn) [Compound 10142, Methyl 4-(2-(6-fluoro-1H-indol-3-yl)acetamido)-1-methylpiperidine-3-carboxylate]"
0.9,0.89,low or no binding,"CC1CN(C(=O)Cc2cc3ccc(F)cc3[nH]2)C1 [Compound 10143, 2-(6-fluoro-1H-indol-2-yl)-1-(3-methylazetidin-1-yl)ethan-1-one]"
2.26,1.56,low or no binding,O=C(O)[C@@H]1CCCN(C(=O)Cc2c[nH]c3cc(F)ccc23)C1 [Compound 10149]
2.07,1.24,low or no binding,"O=C(O)[C@@H]1COCCN1C(=O)Cc1c[nH]c2cc(F)ccc12 [Compound 10150, (S)-4-(2-(6-fluoro-1H-indol-3-yl)acetyl)morpholine-3-carboxylic acid]"
3.24,1.29,low or no binding,O=C(O)[C@@H]1CN(C(=O)Cc2c[nH]c3cc(F)ccc23)CCO1 [Compound 10151]
3.54,1.03,low or no binding,O=C(O)[C@H]1COCCN1C(=O)Cc1c[nH]c2cc(F)ccc12 [Compound 10152]
3.22,1.39,low or no binding,O=C(O)[C@H]1CN(C(=O)Cc2c[nH]c3cc(F)ccc23)CCO1 [Compound 10153]
5.5,1.65,low or no binding,"CC(=O)NC[C@H]1CN(C(=O)Cc2c[nH]c3cc(F)ccc23)CCO1 [Compound 10162, (S)—N-((4-(2-(6-fluoro-1H-indol-3-yl)acetyl)morpholin-2-yl)methyl) acetamide]"
4.84,1.43,low or no binding,CCOC(=O)[C@@H]1CN(C(=O)Cc2c[nH]c3cc(F)ccc23)CCO1 [Compound 10168]
7.14,1.6,low or no binding,CCOC(=O)[C@H]1CN(C(=O)Cc2c[nH]c3cc(F)ccc23)CCO1 [Compound 10169]
6.11,1.52,low or no binding,"O=C(Cc1c[nH]c2cc(F)ccc12)N1CCN(C(=O)C2CCCO2)CC1 (stereo not drawn) [Compound 10170, 2-(6-fluoro-1H-indol-3-yl)-1-(4-(tetrahydrofuran-2-carbonyl)piperazin-1-yl)ethan-1-one]"
7.62,1.19,low or no binding,CCOC(=O)C[C@@H]1CN(C(=O)Cc2c[nH]c3cc(F)ccc23)CCO1 [Compound 10171]

Structure (SMILES),19F T2-CPMG Score (HRas^G12V [1]),19F DLB Score (HRas^G12V [2]),Binding to HRas^G12V (in words) (HRas^G12V [3])
"COC(=O)[C@H]1CN(C(=O)Cc2c[nH]c3cc(F)ccc23)CCN1C [Compound 10156, Methyl (R)-4-(2-(6-fluoro-1H-indol-3-yl)acetyl)-1-methylpiperazine-2-carboxylate]",3.43,1.42,low or no binding
"COC(=O)[C@H]1CN(C)CCN1C(=O)Cc1c[nH]c2cc(F)ccc12 [Compound 10157, Methyl (R)-1-(2-(6-fluoro-1H-indol-3-yl)acetyl)-4-methylpiperazine-2-carboxylate]",3.58,1.04,low or no binding
CN1CCN(C(=O)Cc2c[nH]c3cc(F)ccc23)[C@H](C(=O)O)C1 [Compound 10158],2.14,0.93,low or no binding
COC(=O)[C@@H]1CN(C(=O)Cc2c[nH]c3cc(F)ccc23)CCN1C [Compound 10163],7.3,1.61,low or no binding
"CN1CCN(C(=O)Cc2c[nH]c3cc(F)ccc23)[C@@H](C(=O)O)C1 [Compound 10165, (R)-1-(2-(6-fluoro-1H-indol-3-yl)acetyl)-4-methylpiperazine-2-carboxylic acid]",5.28,1.58,low or no binding
"CN1CCN(C(=O)Cc2c[nH]c3cc(F)ccc23)C[C@@H]1C(=O)O [Compound 10166, (R)-4-(2-(6-fluoro-1H-indol-3-yl)acetyl)-1-methylpiperazine-2-carboxylic Acid]",7.19,1.55,low or no binding
